Data as given in patent US20140302022A1, “2-CARBOXAMIDE CLYCLOAMINO UREA DERIVATIVES FOR USE IN TREATING VEGF-DEPENDENT DISEASES” (priority 2011, published 2014).
Values joined by “and” are separate entries in the source; they are usually repeats but may differ in a detail not shown here. Equal entries are not always repeated.

Columns and labels:
[1] = tested on: angiogenic response induced by VEGF; assay: In vivo chamber implant angiogenesis assay, VEGF-stimulated; design: species or system FVB mice
Experimental: (§1) Porous perfluoro-alkoxy-Teflon® chambers containing PBS or VEGF (2 μg/mL) in 0.5 ml of 0.8% w/v agar (containing heparin, 20 U/mL) were implanted subcutaneously in the flank of FVB mice. Animals were treated orally either with Compound A at 12.5, 25 and 50 mg/kg once a day or vehicle (5 ml/kg) starting 4-6 hours before implantation of the chambers and daily for 3 days. VEGF induces the growth of vascularized tissue around the chamber. The angiogenic response can be quantified by measuring the weight and Tie-2 levels of the tissue. Animals were sacrificed 4 days after the implantation. Values are mean±SEM. *p<0.05, statistical significance of inhibition. The total number of animals per group is given in brackets.
(§2) Sterile tissue chambers made of perfluoro-alkoxy-Teflon® were filled with 500 μl molten 0.8% w/v agar containing 20 U/mL heparin (Novo Nordisk A/S, Bagsvaerd, Denmark) with or without growth factor (dog VEGF 2 μg/mL or phosphate buffer saline (PBS/O)). The chamber was implanted aseptically under isoflurane anesthesia through a small incision on the back of the animal and the incision was closed by wound clips. Animals were treated orally either with Compound A at 12.5, 25 or 50 mg/kg once a day formulated in a vehicle of NMP/PEG300 (10/90, V/V) or vehicle alone starting 4-6 hours before implantation of the chambers and daily for three days. VEGF induces the growth of vascularized tissue around the chamber. The angiogenic response can be quantified by measuring the weight and Tie-2 levels of the tissue.
(§3) Four days after implantation, animals were sacrificed using CO2. The chambers were recovered from the animal and the vascularized tissue that had formed around each implant was carefully removed and weighed. Tissue samples were homogenized for 30 sec at 24000 rpm (Ultra Turrax T25) after addition of 1 mL of Ripa buffer (Tris-HCl 50 mM, NaCl 120 mM, EDTA 1 mM, EGTA 6 mM, NP-40 1%, Sodium fluoride 20 mM, Pefabloc SC 1 mM, Sodium vanadate 1 mM). The samples were then centrifuged for 1 h at 7000 rpm. The supernatant was filtered using a 0.45 μm syringe filter (Acrodisc® GF, Gelman Sciences, Ann Arbor, Mich., USA) to avoid fat contamination.
Tie-2 is a receptor tyrosine kinase which is specifically expressed on endothelial cells. For Tie-2 level determination, Nunc (Naperville, Ill.) Maxisorp 96-well plates were coated over night at 4° C. with the capture antibody, anti-Tie-2 AB33 (UBI, Hauppauge, N.Y.), with a concentration of 2 μg/mL (100 μL/well). Wells were washed in TPBS (Tween 80 PBS) and blocked by incubating with 3% Top-Block (Juro, Lucerne, Switzerland) for 2 hours at room temperature. 300 μg of protein lysates were added and incubated for 2 hours, and the wells washed three times before addition of a goat anti-mouse Tie-2 antibody (R&D Systems, Minneapolis, Minn.; 0.5 μg/mL) and an alkaline phosphate conjugated anti-goat antibody (Sigma, St. Louis, Mo.; diluted 1:6,000) in TPBS+0.1%Top-Block for 1 hour at room temperature. Tie-2 antibody complexes were detected after incubation with p-nitrophenyl phosphate substrate (Sigma). The absorbance of the spectro-photometric reaction was determined with an ELISA reader at 405 nm. Recombinant human extracellular domain of Tie-2 fused to the constant regions of human IgG1 (sTie-2Fc) dissolved in RIPA buffer was used as standard in a concentration range from 0.1 to 300 ng/well
(§4) Four days after the subcutaneous implantation of the VEGF containing chambers, VEGF induced the formation of a thick layer of neovascularised tissue (called capsule) that grew around the implant. PBS containing chambers induced a much thinner layer of tissue with very few blood vessels around control chamber. Tissue formation can be quantified by measuring the weight and the angiogenic response can be quantified by measuring the Tie-2 levels of the capsule. An ELISA assay can quantitatively measure endothelial cells in tissue extracts to evaluate the vascularization of the tissue. […]

[2] = tested on: basal induced angiogenesis; assay: In vivo chamber implant angiogenesis assay, base line (no GF stimulation, PBS control chamber); design: species or system FVB mice
Experimental: as §1, with “PBS” for “PBS or VEGF (2 μg/mL)”, “at” for “at 12.5, 25 and”, “Basal” for “VEGF induces the growth of vascularized”, “tissue formed” for “tissue”, “chamber was carefully removed and” for “chamber. The angiogenic response can be quantified by measuring”, “were quantified.” for “of the tissue.”
as §2, §3
Tie-2 is a receptor tyrosine kinase which is specifically expressed on endothelial cells. For Tie-2 level determination, Nunc (Naperville, Ill.) Maxisorp 96-well plates were coated over night at 4° C. with the capture antibody, anti-Tie-2 AB33 (UBI, Hauppauge, N.Y.), with a concentration of 2 μg/mL (100 μL/well). Wells were washed in TPBS (Tween 80 PBS) and blocked by incubating with 3% Top-Block (Juro, Lucerne, Switzerland) for 2 hours at room temperature. […] Tie-2 antibody complexes were detected after incubation with p-nitrophenyl phosphate substrate (Sigma). The absorbance of the spectro-photometric reaction was determined with an ELISA reader at 405 nm. […]
as §4, with “PBS containing chambers induced a much thinner layer of tissue with very few blood vessels around control chamber.” left out

[3] = tested on: VEGF-induced vessel leakage; assay: In vivo VEGF induced permeability assay (Miles assay); design: species or system FVB mice; settings: 3, 6.25, 12.5 and 25 mg/kg p.o., 5 hours before VEGF injection in the ear
Experimental: FIG. 3: Effects of Compound A on VEGF induced permeability in vivo. FVB mice pre-treated with Compound A (3, 6.25, 12.5 and 25 mg/kg, p.o., for 5 h) were injected i.v. with Evans blue and challenged 30 minutes later with VEGF injection in the ear. Mice were then sacrificed and VEGF-mediated vessel leakage is quantified by measurement of the area (mm^2) of dye that extravasated at the site of VEGF injection using pixel-based threshold in computer-assisted image analysis software. Values are mean±SEM. *p<0.05, statistical significance of inhibition. The total number of animals per group is given in brackets.
200 μl of Evans blue (0.5%) was injected into the tail vein of female FVB mice. Thirty minutes following administration of the dye, the mice were anaesthesized (3% Isoflurane in O2, Forene®, Abbott AG, Cham, Switzerland) and then placed on an operating field maintained at a temperature of 39° C. Their ears were extended over a steel cone fitted with a double-sided sticker to expose the dorsal surface. […] VEGF-mediated vessel leakage is quantified by measurement of the area (mm^2) of dye that extravasated at the site of VEGF injection using pixel-based threshold in a computer-assisted image analysis software (KS-400 3.0 imaging system, Zeiss, Germany). […]

BN472 tumors [4] = assay: Tumor interstitial fluid pressure (IFP) by radio-telemetry; format: in vivo, Brown-Norway (BN) rats
Experimental: FIG. 4: Effects of Compound A on tumor interstitial fluid pressure. (A) Orthotopic BN472 tumor bearing rats containing a pressure sensing catheter inserted in the tumor were treated with Compound A at 25 mg/kg (n=6; initial IFP: 25.4 mmHg±2.8), or with the vehicle control (n=9; 18.2 mmHg±1.5) for 3 consecutive days. The IFP was recorded for 72 h and variations (delta towards initial values) plotted (gray lines: untreated animals; dark line: applied treatment as indicated in the graph). Data presented are means±SEM. (B) Same as in A except that additional animals were treated orally with a lower dose of 12.5 mg/kg Compound A (n=3; initial IFP: 18.8 mmHg±2.3; gray line). Recording was extended for 3 additional days post last treatment to assess recovery patterns. The arrows represent the administration schedule. Gray bars represent night time.
The IFP of BN472 tumors was measured in conscious, freely moving rats maintained in their home cage using an adapted fully implantable miniaturized radio-telemetry system (Data Sciences Int., St. Paul, Minn.) composed of 4 basic components: an implantable transmitter (AM unit, model TLM-PAC10, volume: 1.1 cc, weight: 1.4 g) which continuously senses and transmits information from within the animal, one receiver located under the home cage, a matrix interface for coordination of signals and a computer-based data acquisition system for collection, analysis and storage of data. The body of the transmitter was implanted s.c. under aseptic conditions into the flank of the animal under isofluorane anaesthesia (3% Isoflurane in O2). Briefly, once animals are fully unconscious, they are placed on a heated blanket and the abdominal area is shaved. The ventral surface of the abdomen is then prepared by swabbing the skin with povidone iodine surgical scrub. With the animal supine, a skin incision of approximately 30 mm is made along the midline of the abdomen and the skin separated from the muscle wall building an air pocket. The sterile transmitter is then positioned in this pocket and the sensing catheter tunneled subcutaneously towards the tumor site (lowest mammary fat pad). The sensing pressure catheter was inserted into the body of the tumor (4-5 mm depth) and secured at the site of entry with tissue adhesive (Vetbond; 3M Company). Fluid communication between the tip of the pressure catheter and the tumor was tested by gentle compressing and decompressing the tubing connected to the telemetry transducer using a clamp. […] However, in most of the implanted tumors, intra-tumoral IFP pulse pressure waveform curves could be recorded unstintingly with high resolution confirming even more strongly the adequate sensing catheter placement. The total operation time for the implantation of the telemetry transmitter was about 20 min. Postoperative analgesia was provided using Buprenorphin (Temgesic®, Reckitt and Colman) injection of 0.05 mg/kg s.c. twice, immediately after surgery and 8-12 h later. Following surgery, the unconscious animal is placed on soft material in a clean cage with water ad libitum. An external heat lamp is used to maintain body temperature. The animals were allowed a period of 2 days to recover from surgery before starting acquisition of any physiological data. IFP was recorded continuously in all animals over 24 hours up to 5 days, and analyzed in 1-min cyclic runs for 10 sec, with a 500-Hz sampling rate. Values presented are means over 15 min periods.

BN472 tumors [5] = assay: Efficacy experiment with orthotopic BN472 rat mammary carcinoma model; settings: qd, p.o.; for T/C (%): 0.5% Methylcellulose suspension
Excerpt: BN472 tumors were established by orthotopic implantation of tumor fragments into the mammary fat pad of BN rats. Female Brown-Norway (BN) rats (obtained from Charles River (France)) weighing 160-180 g (6-7 weeks of age) were used for all experiments. They were identified by tail markings and kept in groups of 3-5 animals under normal conditions with access to food and water ad libitum. Tumor fragments of 25 mm^3 were taken from the cortex region and were transplanted orthotopically under the fat pad of the fourth left mammary gland of the recipients. For efficacy experiments, treatments were always initiated when the mean tumor volume in each group reached 400-500 mm^3.

[6] = 12.5 mg/kg p.o. once a day, exp. 2, mean ± SEM
[7] = 25 mg/kg p.o. once a day, exp. 2, mean ± SEM
[8] = 50 mg/kg p.o. once a day, exp. 1, mean ± SEM
[9] = 50 mg/kg p.o. once a day, exp. 2, mean ± SEM
[10] = 50 mg/kg, chamber without growth factor

## Cc1nc(NC(=O)N2CCC[C@H]2C(N)=O)sc1-c1ccnc(C(C)(C)C(F)(F)F)c1 [Compound A, (S)-Pyrrolidine-1,2-dicarboxylic acid 2-amide 1-({4-methyl-5-[2-(2,2,2-trifluoro-1,1-dimethyl-ethyl)-pyridin-4-yl]-thiazol-2-yl}-amide)]
[1]; 12.5 mg/kg p.o. once a day, exp. 1, mean ± SEM
  % inhibition VEGF-stimulated, Capsule weight: 64 ± 33 (3) %
[1]; [6]
  % inhibition VEGF-stimulated, Capsule weight: 74 ± 24 (4) %
  % inhibition VEGF-stimulated, Total Tie-2: 58 ± 22 (4) %
[1]; 25 mg/kg p.o. once a day, exp. 1, mean ± SEM
  % inhibition VEGF-stimulated, Capsule weight: 84 ± 5 * (3) %
[1]; [7]
  % inhibition VEGF-stimulated, Capsule weight: 106 ± 28 * (4) %
  % inhibition VEGF-stimulated, Total Tie-2: 113 ± 38 * (4) %
[1]; 50 mg/kg given daily
  Tie-2 levels of the capsule, VEGF chamber: returned to the baseline or even below
[1]; [8]
  % inhibition VEGF-stimulated, Capsule weight: 88 ± 12 * (4) %
[1]; [9]
  % inhibition VEGF-stimulated, Capsule weight: 121 ± 11 * (6) %
  % inhibition VEGF-stimulated, Total Tie-2: 145 ± 9 * (6) %
[1]; once a day at 12.5, 25 and 50 mg/kg in solution
  angiogenic response induced by VEGF (weight and Tie-2 level of the capsule): inhibited significantly
[2]; [8]
  % inhibition Base line (no GF stimulation), Capsule weight: 14 ± 11 (2) %
[2]; [9]
  % inhibition Base line (no GF stimulation), Capsule weight: 12 ± 10 (3) %
  % inhibition Base line (no GF stimulation), Total Tie-2: 29 ± 9 * (3) %
[2]; [10]
  Tie-2 levels, basal induced angiogenesis: significantly reduced
  tissue weight, basal induced angiogenesis: did not affect tissue weight
[3]
  abrogation of VEGF-induced Evans blue dye extravasation: up to 90%
BN472 tumors [4]; 12.5 mg/kg
  IFP pattern over three days of treatment compared with 25 mg/kg: very similar pattern
  time post last treatment at which IFP returned to initial values: ≤ 60 h
BN472 tumors [4]; 25 mg/kg
  time post last treatment without normalization of IFP diminution: > 72 h
BN472 tumors [4]; 25 mg/kg, 4 hours post treatment
  reduction in IFP: clear and significant reduction
BN472 tumors [4]; 25 mg/kg, 22 hours post dosage
  IFP change at max after first treatment: −25%
BN472 tumors [4]; 25 mg/kg, second treatment at time point 24 hours
  IFP inhibition after second treatment: −36%
BN472 tumors [4]; 25 mg/kg, third treatment, sustained for 48 hours
  IFP inhibition after third treatment: −43%
BN472 tumors [5]; 20 mg/kg
  % change of body weight corrected: 1.2 ± 0.5%
  Mean fold change in tumor growth: 4.6 ± 0.8
  Survival (Survivors/total): 5/5
  Δ Body weight (mean g ± SEM): 4.0 ± 1.1 g
  Δ tumor volume (mean mm^3 ± SEM): 1725 ± 283 * mm^3
  T/C (%): 36% and 36 * %
BN472 tumors [5]; 40 mg/kg
  % change of body weight corrected: −1.8 ± 0.5%
  Mean fold change in tumor growth: 3.3 ± 0.2
  Survival (Survivors/total): 5/5
  Δ Body weight (mean g ± SEM): -2.5 ± 0.9 g
  Δ tumor volume (mean mm^3 ± SEM): 1108 ± 198 * mm^3
  T/C (%): 23% and 23 * %
